Measurements from the NIST ThermoML archive (doi:10.1021/je9001416).
Numbers after ± are expanded uncertainties. Each block holds one compound with its values, some of them ahead of it.

Assays:
[1] = xn = mol fraction of the nth substance listed; conditions: 303.15 K, 101 kPa, Liquid
[2] = refractive index (Na D-line) (dimensionless); xn = mol fraction of the nth substance listed; conditions: 303.15 K, 101 kPa, Liquid, Standard Abbe refractometry
[3] = excess molar enthalpy (molar enthalpy of mixing); xn = mol fraction of the nth substance listed; conditions: 303.15 K, 101 kPa, Liquid, Flow calorimetry

Compound: CC(C)CC(C)(C)C [2,2,4-trimethylpentane] + CC(C)OC(C)C
mass density ([1]; x2 = 0): 684.1 ± 0.31 kg/m3 | refractive index ([2]; x2 = 0): 1.3865 ± 0.00068

Compound: CC(C)CC(C)(C)C [2,2,4-trimethylpentane] + CCO
mass density ([1]; x2 = 0): 684.1 ± 0.31 kg/m3 | mass density ([1]; x2 = 0.061): 685.45 ± 0.31 kg/m3 | mass density ([1]; x2 = 0.1201): 687.2 ± 0.31 kg/m3 | mass density ([1]; x2 = 0.2363): 691.81 ± 0.3 kg/m3 | mass density ([1]; x2 = 0.3467): 697.27 ± 0.3 kg/m3 | mass density ([1]; x2 = 0.453): 703.74 ± 0.3 kg/m3 | mass density ([1]; x2 = 0.5525): 711.14 ± 0.29 kg/m3 | mass density ([1]; x2 = 0.6502): 720.18 ± 0.28 kg/m3 | mass density ([1]; x2 = 0.7431): 730.88 ± 0.28 kg/m3 | mass density ([1]; x2 = 0.8322): 744.05 ± 0.27 kg/m3 | mass density ([1]; x2 = 0.9176): 760.58 ± 0.25 kg/m3 | mass density ([1]; x2 = 0.9599): 770.78 ± 0.24 kg/m3 | refractive index ([2]; x2 = 0): 1.3865 ± 0.00068 | refractive index ([2]; x2 = 0.0498): 1.38633 ± 0.00068 | refractive index ([2]; x2 = 0.0992): 1.38632 ± 0.00068 | refractive index ([2]; x2 = 0.1997): 1.38482 ± 0.00068 | refractive index ([2]; x2 = 0.2998): 1.38404 ± 0.00068 | refractive index ([2]; x2 = 0.4005): 1.38109 ± 0.00068 | refractive index ([2]; x2 = 0.499): 1.37746 ± 0.00068 | refractive index ([2]; x2 = 0.5999): 1.37322 ± 0.00068 | refractive index ([2]; x2 = 0.7): 1.36851 ± 0.00068 | refractive index ([2]; x2 = 0.8001): 1.36386 ± 0.00068 | refractive index ([2]; x2 = 0.8999): 1.36145 ± 0.00068 | refractive index ([2]; x2 = 0.9508): 1.35789 ± 0.00068

Compound: CC(C)OC(C)C [diisopropyl ether] + CC(C)CC(C)(C)C
mass density ([1]; x1 = 0.0614): 685.5 ± 0.31 kg/m3 | mass density ([1]; x1 = 0.1204): 686.92 ± 0.31 kg/m3 | mass density ([1]; x1 = 0.2365): 689.82 ± 0.31 kg/m3 | mass density ([1]; x1 = 0.3486): 692.78 ± 0.3 kg/m3 | mass density ([1]; x1 = 0.4525): 695.6 ± 0.3 kg/m3 | mass density ([1]; x1 = 0.5542): 698.54 ± 0.3 kg/m3 | mass density ([1]; x1 = 0.6497): 701.45 ± 0.3 kg/m3 | mass density ([1]; x1 = 0.7437): 704.5 ± 0.29 kg/m3 | mass density ([1]; x1 = 0.8322): 707.61 ± 0.29 kg/m3 | mass density ([1]; x1 = 0.9187): 710.76 ± 0.29 kg/m3 | mass density ([1]; x1 = 0.9598): 712.33 ± 0.29 kg/m3 | mass density ([1]; x1 = 1): 713.78 ± 0.29 kg/m3 | excess molar enthalpy ([3]; x1 = 0.0577): 0.039 ± 0.0013 kJ/mol | excess molar enthalpy ([3]; x1 = 0.1144): 0.0744 ± 0.0019 kJ/mol | excess molar enthalpy ([3]; x1 = 0.1702): 0.106 ± 0.0026 kJ/mol | excess molar enthalpy ([3]; x1 = 0.2252): 0.132 ± 0.0031 kJ/mol | excess molar enthalpy ([3]; x1 = 0.2793): 0.154 ± 0.0036 kJ/mol | excess molar enthalpy ([3]; x1 = 0.3326): 0.171 ± 0.0039 kJ/mol | excess molar enthalpy ([3]; x1 = 0.385): 0.185 ± 0.0042 kJ/mol | excess molar enthalpy ([3]; x1 = 0.4367): 0.193 ± 0.0044 kJ/mol | excess molar enthalpy ([3]; x1 = 0.4875): 0.197 ± 0.0045 kJ/mol | excess molar enthalpy ([3]; x1 = 0.5376): 0.198 ± 0.0045 kJ/mol | excess molar enthalpy ([3]; x1 = 0.587): 0.193 ± 0.0044 kJ/mol | excess molar enthalpy ([3]; x1 = 0.6356): 0.185 ± 0.0042 kJ/mol | excess molar enthalpy ([3]; x1 = 0.6835): 0.174 ± 0.004 kJ/mol | excess molar enthalpy ([3]; x1 = 0.7307): 0.159 ± 0.0037 kJ/mol | excess molar enthalpy ([3]; x1 = 0.7772): 0.141 ± 0.0033 kJ/mol | excess molar enthalpy ([3]; x1 = 0.823): 0.119 ± 0.0028 kJ/mol | excess molar enthalpy ([3]; x1 = 0.8682): 0.0934 ± 0.0023 kJ/mol | excess molar enthalpy ([3]; x1 = 0.9128): 0.0651 ± 0.0017 kJ/mol | excess molar enthalpy ([3]; x1 = 0.9567): 0.0332 ± 0.0012 kJ/mol | refractive index ([2]; x1 = 0.0614): 1.38505 ± 0.00068 | refractive index ([2]; x1 = 0.1204): 1.38372 ± 0.00068 | refractive index ([2]; x1 = 0.2365): 1.38115 ± 0.00068 | refractive index ([2]; x1 = 0.3486): 1.37862 ± 0.00068 | refractive index ([2]; x1 = 0.4525): 1.37619 ± 0.00068 | refractive index ([2]; x1 = 0.5542): 1.37383 ± 0.00068 | refractive index ([2]; x1 = 0.6497): 1.37172 ± 0.00068 | refractive index ([2]; x1 = 0.7437): 1.36963 ± 0.00068 | refractive index ([2]; x1 = 0.8322): 1.36774 ± 0.00068 | refractive index ([2]; x1 = 0.9187): 1.36596 ± 0.00068 | refractive index ([2]; x1 = 0.9598): 1.36512 ± 0.00068 | refractive index ([2]; x1 = 1): 1.36425 ± 0.00068

Compound: CC(C)OC(C)C [diisopropyl ether] + CCO
mass density ([1]; x1 = 0.0495): 776.55 ± 0.24 kg/m3 | mass density ([1]; x1 = 0.0994): 771.45 ± 0.24 kg/m3 | mass density ([1]; x1 = 0.2002): 762.41 ± 0.25 kg/m3 | mass density ([1]; x1 = 0.2997): 754.04 ± 0.26 kg/m3 | mass density ([1]; x1 = 0.4003): 746.63 ± 0.26 kg/m3 | mass density ([1]; x1 = 0.5012): 740.01 ± 0.27 kg/m3 | mass density ([1]; x1 = 0.6012): 734.1 ± 0.27 kg/m3 | mass density ([1]; x1 = 0.7018): 728.75 ± 0.28 kg/m3 | mass density ([1]; x1 = 0.804): 723.6 ± 0.28 kg/m3 | mass density ([1]; x1 = 0.8996): 718.96 ± 0.28 kg/m3 | mass density ([1]; x1 = 0.9505): 716.37 ± 0.29 kg/m3 | mass density ([1]; x1 = 1): 713.78 ± 0.29 kg/m3 | excess molar enthalpy ([3]; x1 = 0.0212): 0.01 ± 0.00085 kJ/mol | excess molar enthalpy ([3]; x1 = 0.0437): 0.0219 ± 0.00097 kJ/mol | excess molar enthalpy ([3]; x1 = 0.0676): 0.0377 ± 0.0012 kJ/mol | excess molar enthalpy ([3]; x1 = 0.0931): 0.0571 ± 0.0016 kJ/mol | excess molar enthalpy ([3]; x1 = 0.1204): 0.0793 ± 0.002 kJ/mol | excess molar enthalpy ([3]; x1 = 0.1497): 0.105 ± 0.0026 kJ/mol | excess molar enthalpy ([3]; x1 = 0.1811): 0.134 ± 0.0032 kJ/mol | excess molar enthalpy ([3]; x1 = 0.215): 0.167 ± 0.0038 kJ/mol | excess molar enthalpy ([3]; x1 = 0.2516): 0.202 ± 0.0046 kJ/mol | excess molar enthalpy ([3]; x1 = 0.2912): 0.24 ± 0.0054 kJ/mol | excess molar enthalpy ([3]; x1 = 0.3343): 0.277 ± 0.0061 kJ/mol | excess molar enthalpy ([3]; x1 = 0.3813): 0.318 ± 0.007 kJ/mol | excess molar enthalpy ([3]; x1 = 0.4328): 0.36 ± 0.0079 kJ/mol | excess molar enthalpy ([3]; x1 = 0.4894): 0.401 ± 0.0088 kJ/mol | excess molar enthalpy ([3]; x1 = 0.5521): 0.434 ± 0.0095 kJ/mol | excess molar enthalpy ([3]; x1 = 0.6217): 0.46 ± 0.01 kJ/mol | excess molar enthalpy ([3]; x1 = 0.6995): 0.471 ± 0.01 kJ/mol | excess molar enthalpy ([3]; x1 = 0.7871): 0.441 ± 0.0096 kJ/mol | excess molar enthalpy ([3]; x1 = 0.8864): 0.327 ± 0.0072 kJ/mol | refractive index ([2]; x1 = 0.0495): 1.35854 ± 0.00068 | refractive index ([2]; x1 = 0.0994): 1.35989 ± 0.00068 | refractive index ([2]; x1 = 0.2002): 1.36147 ± 0.00068 | refractive index ([2]; x1 = 0.2997): 1.36232 ± 0.00068 | refractive index ([2]; x1 = 0.4003): 1.36325 ± 0.00068 | refractive index ([2]; x1 = 0.5012): 1.36309 ± 0.00068 | refractive index ([2]; x1 = 0.6012): 1.36285 ± 0.00068 | refractive index ([2]; x1 = 0.7018): 1.36225 ± 0.00068 | refractive index ([2]; x1 = 0.804): 1.36246 ± 0.00068 | refractive index ([2]; x1 = 0.8996): 1.36213 ± 0.00068 | refractive index ([2]; x1 = 0.9505): 1.36303 ± 0.00068 | refractive index ([2]; x1 = 1): 1.36425 ± 0.00068

More lines, now with the values ahead:

mass density ([1]; x1 = 1): 781.99 ± 0.23 kg/m3 | refractive index ([2]; x1 = 1): 1.35733 ± 0.00068
Compound: CCO [ethanol] + CC(C)CC(C)(C)C

mass density ([1]; x2 = 0): 781.99 ± 0.23 kg/m3 | refractive index ([2]; x2 = 0): 1.35733 ± 0.00068
Compound: CCO [ethanol] + CC(C)OC(C)C
